How the values were obtained:
[1] = system: blood tri-glyceride level; assay: Animal test of fat absorption suppressive effect: blood tri-glyceride AUC after corn oil; assay type: in vivo; settings: Male SD rats
Protocol: (1) Sample for control group: Distilled water was filtrated by a membrane filter (DISMIC-13CP, PTFE, φ0.45 μm, ADVANTEC) and used as a test sample for the control group.
(2) Sample for protamine group: Protamine (2.50 g) was dissolved in distilled water (50 mL) filtrated by a membrane filter and used as a test sample for the protamine group.
(3) Sample for alginate mixture group: As a dispersant, soybean polysaccharide (SM-700, 400 mg) was dissolved in distilled water (50 mL) filtrated by a membrane filter to prepare a 0.8% dispersant solution. Protamine (2.00 g) was dissolved with the 0.8% dispersant solution (20 mL) to prepare a protamine solution. To the protamine solution (12.5 mL), an alginate solution (12.5 mL), which was prepared by dissolving alginate (1.60 g) in the 0.8% dispersant solution (20 mL), was added while stirring to prepare a protamine complex suspension and used as a test sample for an alginate complex (mixture) group.
(4) Sample for gum arabic mixture group: Protamine (2.00 g) was dissolved in distilled water (20 mL) to prepare a protamine solution. […]
Evaluation was performed using Male SD rats (6 weeks old, 7 rats per group). […] Using the plasma samples, a blood tri-glyceride level was measured and compared to the control group with respect to blood-level area under the curve (AUC).

fat absorption = settings: oral; protamine dose of 0.5 g; cited from earlier work

## protamine
[1]; oral, corn oil load
  fat absorption suppressive effect compared to the control group: significant fat absorption suppressive effect
[1]; test substance 5 mL/kg orally (corresponding to 0.5 g/kg in terms of protamine), then corn oil 5 mL/kg, blood at 0, 1.5, 3.0, 4.5 hours
  AUC relative to control group (blood tri-glyceride level): 78 ± 7%
Fat absorption
  fat absorption suppressive effect when orally taken by humans: exerts a fat absorption suppressive effect

Reference: patent US8399014B2, “Physiologically active complex comprising protamine and/or salt therefor and an acidic macromolecular substance, and use thereof” (Maruha Nichiro Foods, Inc., priority 2008, dated 2013)
